Laboratory results published in patent US20260001928A1 (CORTERIA PHARMACEUTICALS, priority 2022, published 2026).
pEC50: −log10 of the molar value. *1 amine or outer side, *2 acyl side, *3 side chain or, on linkers, in order; H or OH if unused. Where a SMILES comes first, the peptide text is derived from it. Side-chain parts run from the residue outwards. [ ]: non-standard residue; d: D form. The star is where a group is joined. C16 diacid = O=C(O)CCCCCCCCCCCCCCC(=O)*; γGlu = O=C(O)[C@H](CCC(=O)[*:2])N[*:1]; NMeI = CC[C@H](C)[C@H](NC)C(=O)O; αMeL = CC(C)C[C@](C)(N)C(=O)O; Ac6c = NC1(C(=O)O)CCCCC1; Ac5c = NC1(C(=O)O)CCCC1; Ac3c = NC1(C(=O)O)CC1; Aib = CC(C)(N)C(=O)O

Columns and labels:
CFR1R receptor = biological target: T1, CFR1R receptor (Homo sapiens, UniProt P34998); assay: Activity at anti-target CFR1R receptor, cAMP assay in CRF1R-overexpression CHO-K1 cells; assay type: cell-based; conditions: 100% = Sauvagine at 100 nM; for pEC50: cAMP
T1 construct: host or cells: CHO-K1 (clone 2)
T1 sequence (P34998 24-415): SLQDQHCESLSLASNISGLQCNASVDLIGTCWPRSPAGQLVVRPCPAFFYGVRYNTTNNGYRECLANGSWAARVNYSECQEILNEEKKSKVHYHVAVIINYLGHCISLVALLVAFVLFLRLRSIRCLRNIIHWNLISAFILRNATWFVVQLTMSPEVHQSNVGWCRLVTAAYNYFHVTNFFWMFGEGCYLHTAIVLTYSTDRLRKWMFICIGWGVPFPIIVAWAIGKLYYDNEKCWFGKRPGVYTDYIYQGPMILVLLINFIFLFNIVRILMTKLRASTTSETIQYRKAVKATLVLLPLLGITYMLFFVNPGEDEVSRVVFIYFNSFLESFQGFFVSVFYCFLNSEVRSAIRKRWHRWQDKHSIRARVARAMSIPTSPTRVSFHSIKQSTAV
How it was run: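 Signal is normalised to 100 nM Sauvagine, taken as 100% activation, in clone 2 cells plated at a final 4000 cells/well from frozen stocks.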

human CRF2a receptor = biological target: T2, human CRF2a receptor (Homo sapiens, UniProt Q13324); assay: Activity at human CRF2a receptor, cAMP functional assay in TeloHEAC cells; assay type: cell-based; conditions: TeloHEAC cells stably expressing human CRF2a receptor, relative to urocortin 2 (100 nM = 100%)
T2 construct: expressed in transfected cells; host or cells: TeloHEAC cells
T2 sequence (Q13324 1-411): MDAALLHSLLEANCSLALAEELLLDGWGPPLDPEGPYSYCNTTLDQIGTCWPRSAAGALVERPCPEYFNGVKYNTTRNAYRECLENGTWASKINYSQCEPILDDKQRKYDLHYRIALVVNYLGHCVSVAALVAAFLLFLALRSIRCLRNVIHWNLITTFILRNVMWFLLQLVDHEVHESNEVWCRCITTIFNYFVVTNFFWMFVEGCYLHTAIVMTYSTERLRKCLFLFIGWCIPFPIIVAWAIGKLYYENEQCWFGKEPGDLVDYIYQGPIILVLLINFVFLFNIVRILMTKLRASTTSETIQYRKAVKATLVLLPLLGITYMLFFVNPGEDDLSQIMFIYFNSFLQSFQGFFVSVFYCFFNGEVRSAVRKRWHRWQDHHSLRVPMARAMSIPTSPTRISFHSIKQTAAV
How it was run: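 cAMP accumulation was measured by HTRF 665/620 nm ratio after 30 min at 37° C compound exposure (16 twofold dilutions) of CRF2a-expressing TeloHEAC cells, 10000/well, in HEPES-buffered HBSS plus IBMX. Activity was normalised to urocortin 2 at 100 nM (100%), and EC50 was the concentration giving half-maximal activation.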

Row | Compound | Emax (% I) (CFR1R receptor) | pEC50 (CFR1R receptor) | pEC50 (human CRF2a receptor)
1 | CC[C@H](C)[C@H](NC(C)=O)C(=O)N[C@H](C(=O)N[C@@H](CC(C)C)C(=O)N[C@@H](CO)C(=O)N[C@@H](CC(C)C)C(=O)N[C@@H](CC(=O)O)C(=O)N[C@@H](C(=O)N1CCC[C@H]1C(=O)N[C@H](C(=O)N[C@@H](CCCCN)C(=O)N[C@@H](CC(C)C)C(=O)N[C@@H](CCCCNC(=O)CC[C@H](NC(=O)CCCCCCCCCCCCCCC(=O)O)C(=O)O)C(=O)N[C@@H](CCCCN)C(=O)N[C@H](C(=O)N[C@@H](CC(C)C)C(=O)N[C@@H](CC(C)C)C(=O)N[C@@H](CCC(=O)O)C(=O)N[C@@H](CCC(N)=O)C(=O)N[C@@H](CCC(=O)O)C(=O)N[C@@H](CCCCN)C(=O)N[C@@H](CCC(N)=O)C(=O)N[C@@H](CCCCN)C(=O)N[C@@H](CCCCN)C(=O)N[C@@H](CCC(N)=O)C(=O)N[C@@H](CCCNC(=N)N)C(=O)N[C@@H](CCC(=O)O)C(=O)N[C@@H](CCC(N)=O)C(=O)N[C@@H](C)C(=O)N[C@@H](CCC(=O)O)C(=O)N[C@H](C(=O)N[C@@H](CC(N)=O)C(=O)NC1(C(=O)N[C@@H](CCC(N)=O)C(=O)N[C@H](C(=O)N[C@@H](CC(C)C)C(=O)N[C@@H](C)C(=O)N[C@@H](CCC(N)=O)C(=O)N[C@H](C(N)=O)C(C)C)[C@@H](C)CC)CC1)[C@@H](C)O)[C@@H](C)CC)[C@@H](C)CC)C(C)C)C(C)C [compound 61] (Ac-IVLSLD[dV]PIKLK([γGlu-C16 diacid])KILLEQEKQKKQREQAETN[Ac3c]QILAQV-NH2) | 3 % I | < 6.60 | 9.44
2 | CC[C@H](C)[C@H](NC)C(=O)N[C@H](C(=O)N[C@@H](CC(C)C)C(=O)N[C@@H](CO)C(=O)N[C@@H](CC(C)C)C(=O)N[C@@H](CC(=O)O)C(=O)N[C@@H](C(=O)N1CCC[C@H]1C(=O)N[C@H](C(=O)N[C@@H](CCCCN)C(=O)N[C@@](C)(CC(C)C)C(=O)N[C@@H](CCCCNC(=O)CC[C@H](NC(=O)CCCCCCCCCCCCCCC(=O)O)C(=O)O)C(=O)N[C@@H](CCCCN)C(=O)N[C@H](C(=O)N[C@@H](CC(C)C)C(=O)N[C@@H](CC(C)C)C(=O)N[C@@H](CCC(=O)O)C(=O)N[C@@H](CCC(N)=O)C(=O)N[C@@H](CCC(=O)O)C(=O)N[C@@H](CCCCN)C(=O)N[C@@H](CCC(N)=O)C(=O)N[C@@H](CCCCN)C(=O)N[C@@H](CCCCN)C(=O)N[C@@H](CCC(N)=O)C(=O)N[C@@H](CCCNC(=N)N)C(=O)N[C@@H](CCC(=O)O)C(=O)N[C@@H](CCC(N)=O)C(=O)N[C@@H](C)C(=O)N[C@@H](CCC(=O)O)C(=O)N[C@H](C(=O)N[C@@H](CC(N)=O)C(=O)NC(C)(C)C(=O)N[C@@H](CCC(N)=O)C(=O)N[C@H](C(=O)N[C@@H](CC(C)C)C(=O)N[C@@H](C)C(=O)N[C@@H](CCC(N)=O)C(=O)N[C@H](C(N)=O)C(C)C)[C@@H](C)CC)[C@@H](C)O)[C@@H](C)CC)[C@@H](C)CC)C(C)C)C(C)C [compound 65] (H-[NMeI]VLSLD[dV]PIK[αMeL]K([γGlu-C16 diacid])KILLEQEKQKKQREQAETN[Aib]QILAQV-NH2) | 10 % I | < 6.60 | 10.00

Other lines, results leading:

Row | Emax (% I) (CFR1R receptor) | pEC50 (CFR1R receptor) | pEC50 (human CRF2a receptor) | Compound
3 | 3 % I | < 6.60 | 9.52 | CC[C@H](C)[C@H](NC(C)=O)C(=O)N[C@H](C(=O)N[C@@H](CC(C)C)C(=O)N[C@@H](CO)C(=O)N[C@@H](CC(C)C)C(=O)N[C@@H](CC(=O)O)C(=O)N[C@@H](C(=O)N1CCC[C@H]1C(=O)N[C@H](C(=O)N[C@@H](CCCCN)C(=O)N[C@@H](CC(C)C)C(=O)N[C@@H](CCCCNC(=O)CC[C@H](NC(=O)CCCCCCCCCCCCCCC(=O)O)C(=O)O)C(=O)N[C@@H](CCCCN)C(=O)N[C@H](C(=O)N[C@@H](CC(C)C)C(=O)N[C@@H](CC(C)C)C(=O)N[C@@H](CCC(=O)O)C(=O)N[C@@H](CCC(N)=O)C(=O)N[C@@H](CCC(=O)O)C(=O)N[C@@H](CCCCN)C(=O)N[C@@H](CCC(N)=O)C(=O)N[C@@H](CCCCN)C(=O)N[C@@H](CCCCN)C(=O)N[C@@H](CCC(N)=O)C(=O)N[C@@H](CCCNC(=N)N)C(=O)N[C@@H](CCC(=O)O)C(=O)N[C@@H](CCC(N)=O)C(=O)N[C@@H](C)C(=O)N[C@@H](CCC(=O)O)C(=O)N[C@H](C(=O)N[C@@H](CC(N)=O)C(=O)N[C@@H](CCC(=O)O)C(=O)N[C@@H](CCC(N)=O)C(=O)N[C@H](C(=O)N[C@@H](CC(C)C)C(=O)N[C@@H](C)C(=O)N[C@@H](CCC(N)=O)C(=O)N[C@H](C(N)=O)C(C)C)[C@@H](C)CC)[C@@H](C)O)[C@@H](C)CC)[C@@H](C)CC)C(C)C)C(C)C [compound 56] (Ac-IVLSLD[dV]PIKLK([γGlu-C16 diacid])KILLEQEKQKKQREQAETNEQILAQV-NH2)
4 | 9 % I | < 6.60 | 9.09 | CC[C@H](C)[C@H](NC(C)=O)C(=O)N[C@H](C(=O)N[C@@H](CC(C)C)C(=O)N[C@@H](CO)C(=O)N[C@@H](CC(C)C)C(=O)N[C@@H](CC(=O)O)C(=O)N[C@@H](C(=O)N1CCC[C@H]1C(=O)N[C@H](C(=O)N[C@@H](CCCCN)C(=O)N[C@@H](CC(C)C)C(=O)N[C@@H](CCCCNC(=O)CC[C@H](NC(=O)CCCCCCCCCCCCCCC(=O)O)C(=O)O)C(=O)N[C@@H](CCCCN)C(=O)N[C@H](C(=O)N[C@@H](CC(C)C)C(=O)N[C@@H](CC(C)C)C(=O)N[C@@H](CCC(=O)O)C(=O)N[C@@H](CCC(N)=O)C(=O)N[C@@H](CCC(=O)O)C(=O)N[C@@H](CCCCN)C(=O)N[C@@H](CCC(N)=O)C(=O)N[C@@H](CCCCN)C(=O)N[C@@H](CCCCN)C(=O)N[C@@H](CCC(N)=O)C(=O)N[C@@H](CCCNC(=N)N)C(=O)N[C@@H](CCC(=O)O)C(=O)N[C@@H](CCC(N)=O)C(=O)N[C@@H](C)C(=O)N[C@@H](CCC(=O)O)C(=O)N[C@H](C(=O)N[C@@H](CC(N)=O)C(=O)NC1(C(=O)N[C@@H](CCC(N)=O)C(=O)N[C@H](C(=O)N[C@@H](CC(C)C)C(=O)N[C@@H](C)C(=O)N[C@@H](CCC(N)=O)C(=O)N[C@H](C(N)=O)C(C)C)[C@@H](C)CC)CCCCC1)[C@@H](C)O)[C@@H](C)CC)[C@@H](C)CC)C(C)C)C(C)C [compound 59] (Ac-IVLSLD[dV]PIKLK([γGlu-C16 diacid])KILLEQEKQKKQREQAETN[Ac6c]QILAQV-NH2)
5 | 5 % I | < 6.60 | 9.47 | CC[C@H](C)[C@H](NC(C)=O)C(=O)N[C@H](C(=O)N[C@@H](CC(C)C)C(=O)N[C@@H](CO)C(=O)N[C@@H](CC(C)C)C(=O)N[C@@H](CC(=O)O)C(=O)N[C@@H](C(=O)N1CCC[C@H]1C(=O)N[C@H](C(=O)N[C@@H](CCCCN)C(=O)N[C@@H](CC(C)C)C(=O)N[C@@H](CCCCNC(=O)CC[C@H](NC(=O)CCCCCCCCCCCCCCC(=O)O)C(=O)O)C(=O)N[C@@H](CCCCN)C(=O)N[C@H](C(=O)N[C@@H](CC(C)C)C(=O)N[C@@H](CC(C)C)C(=O)N[C@@H](CCC(=O)O)C(=O)N[C@@H](CCC(N)=O)C(=O)N[C@@H](CCC(=O)O)C(=O)N[C@@H](CCCCN)C(=O)N[C@@H](CCC(N)=O)C(=O)N[C@@H](CCCCN)C(=O)N[C@@H](CCCCN)C(=O)N[C@@H](CCC(N)=O)C(=O)N[C@@H](CCCNC(=N)N)C(=O)N[C@@H](CCC(=O)O)C(=O)N[C@@H](CCC(N)=O)C(=O)N[C@@H](C)C(=O)N[C@@H](CCC(=O)O)C(=O)N[C@H](C(=O)N[C@@H](CC(N)=O)C(=O)NC1(C(=O)N[C@@H](CCC(N)=O)C(=O)N[C@H](C(=O)N[C@@H](CC(C)C)C(=O)N[C@@H](C)C(=O)N[C@@H](CCC(N)=O)C(=O)N[C@H](C(N)=O)C(C)C)[C@@H](C)CC)CCCC1)[C@@H](C)O)[C@@H](C)CC)[C@@H](C)CC)C(C)C)C(C)C [compound 60] (Ac-IVLSLD[dV]PIKLK([γGlu-C16 diacid])KILLEQEKQKKQREQAETN[Ac5c]QILAQV-NH2)
